Our source for the IC50 values is PubChem BioAssay AID1411 (The Scripps Research Institute Molecular Screening Center, 2008).

As a reminder, the IC50 is the concentration that gives 50% inhibition.

Calls of active or inactive are those of the source. How the calls were made is not given here. Some results are limits rather than exact numbers.

Signal transducer and activator of transcription 1-alpha/beta (Homo sapiens), sequence (P42224 whole entry, looked up): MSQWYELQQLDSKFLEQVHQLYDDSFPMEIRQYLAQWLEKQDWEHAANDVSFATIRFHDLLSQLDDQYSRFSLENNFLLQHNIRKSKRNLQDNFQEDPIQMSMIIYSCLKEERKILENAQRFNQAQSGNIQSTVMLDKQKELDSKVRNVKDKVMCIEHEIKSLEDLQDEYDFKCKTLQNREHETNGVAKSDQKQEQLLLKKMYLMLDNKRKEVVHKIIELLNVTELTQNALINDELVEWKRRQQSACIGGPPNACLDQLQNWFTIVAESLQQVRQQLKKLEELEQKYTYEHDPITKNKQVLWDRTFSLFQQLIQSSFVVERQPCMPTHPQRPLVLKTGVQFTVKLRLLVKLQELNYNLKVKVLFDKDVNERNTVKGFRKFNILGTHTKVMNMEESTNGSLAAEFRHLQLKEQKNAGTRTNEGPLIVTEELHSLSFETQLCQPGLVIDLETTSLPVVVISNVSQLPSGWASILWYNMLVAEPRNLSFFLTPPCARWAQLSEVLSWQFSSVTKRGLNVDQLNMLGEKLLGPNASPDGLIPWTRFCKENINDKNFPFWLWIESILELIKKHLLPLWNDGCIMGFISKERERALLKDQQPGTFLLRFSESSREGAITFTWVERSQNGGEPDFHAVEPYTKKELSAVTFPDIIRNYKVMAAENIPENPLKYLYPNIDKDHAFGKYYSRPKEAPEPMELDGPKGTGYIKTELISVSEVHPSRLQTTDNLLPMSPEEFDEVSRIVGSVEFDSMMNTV

This assay addresses Signal transducer and activator of transcription 1-alpha/beta (Homo sapiens) (UniProt P42224). As to the kind of experiment: STAT1 reporter inhibitors, potency curves, dose response, counter-screen for STAT3 inhibitor project, cell-based, NIH 3T3, luciferase reporter (AID 1411). The settings on record: NIH 3T3 fibroblasts, counterscreen. For orientation: Counterscreens check selectivity or assay interference.
As to `CNC(=O)Oc1cccc(-c2cn3cc(Cl)ccc3n2)c1`, the IC50 entry was “inactive”.
The value for `CC1CCCCC1NS(=O)(=O)c1ccc(S(=O)(=O)NCc2ccncc2)cc1` (configuration not stated) was > 55.7 µM (inactive).
Turning to `COc1ccc2cc(-c3cc(C(=O)OCC(=O)Nc4c(C)n(C)n(-c5ccccc5)c4=O)c4ccccc4n3)ccc2c1`, the IC50 result was “inactive”.
In the case of `COC(=O)Oc1ccc(/C=N/NC(=O)CSCc2ccccc2Br)cc1OC`, the IC50 is > 55.7 µM (inactive).
Turning to `COC(=O)c1cccc(NC(=O)CSc2nc3cccnc3n2C)c1`, the IC50 is > 55.7 µM (inactive).
The value for `NNC(=O)c1cccc(COc2ccccc2Br)c1` was “inactive”.
`O=C(Nc1cccc(O)c1)C(=O)Nc1ccccn1`: the IC50 result is “inactive”.
Turning to `CCCNC(=O)c1ccc(-c2nc3ccccc3s2)s1`, the IC50 result was “inactive”.
Regarding `CCOC(=O)C1=C(Cc2ccc(C)cc2)C(=O)c2ccccc2C1=O`, the IC50 is > 55.7 µM (inactive).
Regarding `CNc1ccccc1C(C)(C)c1cc(-c2ccc(F)cc2)no1`, the IC50 was > 55.7 µM (inactive).
The same measure for `O=C(Nc1ccc(Oc2ccccc2)cc1)C1CCN(c2c3c(nc4ncnn24)CCC3)CC1`: > 55.7 µM (inactive); for `O=C(Nc1ccncc1)c1ccc(-c2ccccc2)cc1`: > 55.7 µM (inactive); for `O=C(Nc1nc(-c2ccc(Cl)s2)cs1)c1ccncc1`: > 55.7 µM (inactive).
The same measure for `Oc1ccc(-c2n[nH]c(=S)n2-c2ccc3c(c2)OCCO3)c(O)c1`: > 55.7 µM (inactive); for `O=C(C1CCN(c2nc3ccc(Br)cc3s2)CC1)N1CCC2(CC1)OCCO2`: > 55.7 µM (inactive).
The same measure for `O=C(Nc1cccc(O)c1)c1noc2c1CCc1ccccc1-2`: “inactive”; for `CC(=O)Nc1ccc(-c2csc(Nc3ccc(Cl)cn3)n2)cc1`: > 55.7 µM (inactive); for `COc1ccc(NS(=O)(=O)c2ccc(NC(=O)c3ccc(N(C)S(C)(=O)=O)cc3)cc2)cc1`: > 55.7 µM (inactive).
For `CSc1ccc(NC(=O)N2CCN(c3nc4ccccc4s3)CC2)cc1`, the IC50 was > 55.7 µM (inactive).
In the case of `COc1ccc2nc3c(cc2c1)c(NC(=O)c1cccs1)nn3CC(C)C`, the IC50 is > 55.7 µM (inactive).
The same measure for `Cc1ccsc1/C=C1\CCc2ccccc2C1=O`: 7.89 µM.
The value for `CCOc1cc(C(=S)N2CCOCC2)ccc1OS(=O)(=O)c1ccc(NC(C)=O)cc1` was > 55.7 µM (inactive).
In the case of `COc1ccccc1OCC(=O)c1[nH]c(C)c(C(C)=O)c1C`, the IC50 is > 55.7 µM (inactive).
Turning to `COc1ccc(/C=N/NC(=S)Nc2cccc(C(=O)O)c2)cc1`, the IC50 result is “inactive”.
Regarding `O=C(Nc1nccs1)c1ccc(S(=O)(=O)NCC2CCCCC2)cc1`, the IC50 is > 55.7 µM (inactive).
With `Cc1cc(OCC(=O)Nc2ccncc2)cc(C)c1Br`, the IC50 is > 55.7 µM (inactive).
Consider `CN1/C(=C\C(=O)C[n+]2ccc(C(=O)c3ccccc3)cc2)C(C)(C)c2ccccc21`, for which the IC50 is > 55.7 µM (inactive).
The same measure for `Cc1nc2sccn2c1-c1csc(NCc2ccccc2)n1`: > 55.7 µM (inactive); for `Cc1nn2cc(-c3ncc(C(F)(F)F)cc3Cl)cnc2c1Br`: “inactive”.
The same measure for `O=C(Nc1ccn(Cc2ccccc2F)n1)c1ccc(COc2ccc(Br)cc2)cc1`: > 55.7 µM (inactive); for `O=c1c2c(nc3n1CCCCC3)sc1c(O)cccc12`: > 55.7 µM (inactive); for `Nc1cc(-c2ccccc2)nn1Cc1ccc(Cl)cc1`: > 55.7 µM (inactive).
The same measure for `O=C1C2C3c4ccccc4C(c4ccccc43)[C@@H]2c2nc3ccccc3n21` (some centres not stated): > 55.7 µM (inactive).
In the case of `CC(=O)N1CCc2cc(S(=O)(=O)NC3CCCc4ccccc43)ccc21` (configuration not stated), the IC50 was > 55.7 µM (inactive).
The same measure for `O=C(CSc1ccc2ccccc2c1)Nc1ccncc1`: > 55.7 µM (inactive); for `CC[n+]1ccccc1/C=C/c1ccc(N(C)C)cc1`: > 55.7 µM (inactive); for `CCCCOc1ccc(C(=O)Nc2ccncc2)cc1`: > 55.7 µM (inactive).
Turning to `COc1ccc(CC(=O)Nc2cccc(-c3nnc(-c4cccc(C)c4)o3)c2)cc1OC`, the IC50 result is “inactive”.
With `CCOc1ncccc1C(=O)OCC(=O)Nc1ccc(-c2nc3ccc(C)cc3s2)cc1`, the IC50 entry was “inactive”.
The same measure for `CCCOc1ccc(/C=N/NC(=S)Nc2ccccc2[N+](=O)[O-])c(O)c1`: > 55.7 µM (inactive); for `CCOC(=O)c1sc2nc(CC(=O)OC)nc(NCc3ccc(Cl)cc3)c2c1C`: > 55.7 µM (inactive).
The value for `CC(C)Cn1c(N)c(C(=O)CSc2ccccc2)c(=O)n(C)c1=O` was > 55.7 µM (inactive); that for `CN(C)S(=O)(=O)c1ccc(C(=O)Nc2nc(-c3cccs3)cs2)cc1` was > 55.7 µM (inactive); that for `CCC(C)NC(=S)Nc1ccc(C(=O)OC)cc1` (configuration not stated) was > 55.7 µM (inactive).
The same measure for `Cc1cc(NC(=O)c2cc(-c3cccs3)on2)nn1Cc1ccc(Cl)cc1`: > 55.7 µM (inactive).
Turning to `O=C(Nc1ccc(Cc2ccncc2)cc1)c1ccc(S(=O)(=O)N2CCOCC2)cc1`, the IC50 was > 55.7 µM (inactive).
The same measure for `Cc1cccc(N2CCN(C(=O)CSCc3c(C)noc3C)CC2)c1C`: > 55.7 µM (inactive); for `Cc1ccc(-c2cn3cc([N+](=O)[O-])ccc3n2)cc1`: > 18.6 µM (inactive).
The same measure for `Clc1ccc(OCc2cc(-c3ccccc3)no2)c(Cl)c1`: “inactive”; for `O=C(Oc1ccccc1N1C(=O)C2CCCCC2C1=O)c1ccccc1` (configuration not stated): > 55.7 µM (inactive); for `Cc1cccc(C)c1NC(=O)N1CCN(c2nc3ccccc3s2)CC1`: > 55.7 µM (inactive).
The same measure for `Cc1ccc(N2C(=O)c3ccccc3C2O)nc1` (configuration not stated): “inactive”; for `Cc1cccc(-c2nc3cc(NC(=O)C4CCCO4)ccc3o2)c1` (configuration not stated): “inactive”.
For the molecule `Nc1cc(-c2ccc(Br)cc2)nn1Cc1ccccc1`, the IC50 is > 55.7 µM (inactive).
The same measure for `Cc1nc(CNS(=O)(=O)c2ccc(Oc3ccccc3)cc2)cs1`: > 55.7 µM (inactive); for `O=S(=O)(c1ccc2c(c1)OCCO2)N1CCC(c2nc3ccccc3s2)CC1`: > 55.7 µM (inactive); for `O=C(Nc1cccc(S(=O)(=O)Nc2ccccc2Cl)c1)c1ccc(Cl)nc1`: > 55.7 µM (inactive).
As to `O=C(Nc1ccc(N2CCOCC2)nc1)c1ccc(C(F)(F)F)cc1`, the IC50 was > 55.7 µM (inactive).
As for `COc1cc(OC)cc(C(=O)Nc2nnc(NC(=S)Nc3ccccc3)s2)c1`, the IC50 was > 55.7 µM (inactive).
As for `CCc1c(C)c2ccc(OCC(=O)OC(C)C)c(C)c2oc1=O`, the IC50 is > 55.7 µM (inactive).
Turning to `CCOC(=O)c1ccc(NC(=O)c2ccc(CN3CCOCC3)cc2)cc1`, the IC50 is > 55.7 µM (inactive).
On to `O=C1c2ccc(Br)cc2C(=O)N1c1ccc(Cc2ccncc2)cc1`, for which the IC50 was > 55.7 µM (inactive).
For `O=C(Oc1cccc(Nc2ncnc3ccccc23)c1)c1ccccc1Cl`, the IC50 was > 55.7 µM (inactive).
The same measure for `COc1ccc(-c2nn(C)c(=O)c3ccccc23)cc1NC(=O)COc1ccc(C)cc1`: “inactive”.
The same measure for `O=C(Nc1ccncc1)c1ccc2c(c1)C(=O)N(C1CCCCC1)C2=O`: > 55.7 µM (inactive); for `COc1ccc(Br)cc1/C(C)=N/NC1=NCCN1`: > 55.7 µM (inactive).
The value for `CCC(C)(C)c1ccc(OCCCC[n+]2cccc(C)c2)c(C(C)(C)CC)c1` was > 55.7 µM (inactive).
On to `CC(=O)c1cn(CC(=O)Nc2ccccc2C)c2ccccc12`, for which the IC50 was > 55.7 µM (inactive).
With `O=C(Nc1ccc(N2CCN(C(=O)c3ccco3)CC2)c(Cl)c1)c1cc2ccccc2o1`, the IC50 entry was “inactive”.
Take `Cc1nc2ccccc2cc1OCc1ccc(F)cc1`: the IC50 was > 55.7 µM (inactive).
The value for `O=C(COc1ccc2ccccc2c1)Nc1ccncc1` was > 55.7 µM (inactive).
As for `COc1cccc(-c2cc(C(=O)Nc3cccc(O)c3)no2)c1`, the IC50 result was “inactive”.
The same measure for `NC(=O)C1CCN(c2ccc(S(=O)(=O)N3CCC(Cc4ccccc4)CC3)cn2)CC1`: > 55.7 µM (inactive).
In the case of `Nc1c(C(=O)NC2CCCCC2)nsc1C(=O)OCC(=O)NC1CCCCC1`, the IC50 was > 55.7 µM (inactive).
`c1ccc(CC2CCN(c3ncnc4sccc34)CC2)cc1`: the IC50 was > 55.7 µM (inactive).
The same measure for `CCCOc1ccc(CSc2nc3ccccc3[nH]2)cc1`: > 55.7 µM (inactive).
The value for `c1ccc(C(Cc2nc(-c3ccncc3)no2)c2ccccc2)cc1` was > 55.7 µM (inactive); that for `Cc1cc(OCC(=O)Nc2ccncc2)ccc1Br` was > 55.7 µM (inactive).
The same measure for `Cc1cc(C)n(Cc2ccc(NC(=O)c3ccc(COc4ccccc4Br)cc3)cc2)n1`: > 55.7 µM (inactive).
On to `C[C@H]1CCC[C@@H](O)CCC/C=C/c2cc(O)cc(O)c2C(=O)O1`, for which the IC50 is > 55.7 µM (inactive).
The value for `O=C1C2C3c4ccccc4C(c4ccccc43)C2c2nc3ccccc3n21` (configuration not stated) was > 55.7 µM (inactive).
Consider `COc1ccc(C(=O)Nc2ccc3oc(Cc4ccc(Cl)cc4)nc3c2)cc1OC`, for which the IC50 was > 55.7 µM (inactive).
On to `Clc1ccc2ncc(-c3nnnn3-c3ccccc3)c(-c3ccccc3)c2c1`, for which the IC50 is > 55.7 µM (inactive).
The same measure for `O=C(Nc1ccn(Cc2ccccc2F)n1)c1ccc(COc2ccccc2Cl)cc1`: > 55.7 µM (inactive); for `Cc1csc(NC(=O)c2cc3c(s2)CCCC3)n1`: “inactive”; for `C[C@H]1O[C@@H](O[C@H]2[C@@H](O)C[C@H](O[C@H]3[C@@H](O)C[C@H](O[C@H]4CC[C@@]5(C)[C@H](CC[C@@H]6[C@@H]5CC[C@]5(C)[C@@H](C7=CC(=O)OC7)CC[C@]65O)C4)O[C@@H]3C)O[C@@H]2C)C[C@H](O)[C@@H]1O`: > 55.7 µM (inactive).
Regarding `CCN(CC)c1ccc(NC(=O)CN2C(=O)CSc3ncccc32)c(C)c1`, the IC50 is > 55.7 µM (inactive).
